# Source: patent US20220315572A1, “SUBSTITUTED CYANOPYRROLIDINES WITH ACTIVITY AS USP30 INHIBITORS” (MISSION THERAPEUTICS LIMITED, priority 2019, published 2022)
# How the values were obtained:
# [1] = Brain homogenate free fraction, equilibrium dialysis; format: in vitro ADME; details: mouse brain tissue homogenate; read-out: Binding Mouse Brain fu, br
# Source text: Brain fu,br: The free fraction of a compound in brain tissue homogenate preparation determined by in vitro equilibrium dialysis. It is understood that only unbound (free) compound is capable of engaging with the target.
# PK mouse = format: in vivo
# Source text: Cl in vivo clearance: Pharmacokinetic measurement of the volume of plasma (or any matrix) from which a substance is completely removed per unit time.
# Oral F: Oral Bioavailability.
# Kpu,u is the ratio of unbound drug in brain to unbound drug in plasma and may be indicative of potential for treating peripheral and/or CNS indications.
# TOM20 ubiquitylation = assay: TOM20-ubiquitylation assay; format: cell-based, Human; details: antimycin A/oligomycin mitophagy trigger; n = 5, (0.015-0.075) printed below
# Source text: Human cell lines can be challenged with mitochondrial depolarizing agents (ionophores (eg. CCCP, valinomycin), mitochondrial complex inhibitors (oligomycin, antimycin A)) to induce ubiquitylation of TOM20, which is then further promoted in the presence of USP30 inhibitors. TOM20 ubiquitylation is subsequently assessed through western blotting of the cell lysates, with TOM20 ubiquitylation adduct detection possible due to an 8 kDa molecule weight increase for each molecule of ubiquitin added, resulting in laddering of a TOM20 immunoreactive band. TOM20-ubiquitylation levels can be quantified using chemiluminescence densitometry of laddered immunoreactive bands.
smiles,measurement,setting,value
"C[C@@H]1C[C@@H](NC(=O)c2nnc(-c3cccc(C#N)c3)o2)CN1C#N [Example 1, N-((3R,5R)-1-Cyano-5-methylpyrrolidin-3-yl)-5-(3-cyanophenyl)-1,3,4-oxadiazole-2-carboxamide]",fraction unbound,[1],0.26
same,Unbound plasma Cmax/TOM20-Ub cell potency,PK mouse; 10 mg/kg PO dose - mouse,82-fold
same,clearance,"PK mouse; blood, mouse 2 mg/kg iv, read-out: Cl blood",23 mL/min/kg
same,Kp,"PK mouse; brain and plasma (unbound), 2 mg/kg IV dose - mouse, unbound brain to unbound plasma, read-out: Kpu, u",0.01
same,bioavailability,"PK mouse; in vivo, po, mouse 10 mg/kg, read-out: Oral F (%)",48%
same,TOM20-Ub 1.5-fold gain EC1.5x (μM),TOM20 ubiquitylation,0.035 (n = 5) μM
same,melting point,,152 to 154 °C
